The values below come from patent US9809853B2, “Calcium-activated chloride channel involved in human sweat formation” (BRAIN Biotechnology Research and Information Network AG, priority 2012, dated 2017).

The target in the test is T1, TMEM16A(acΔe3) (Homo sapiens, UniProt Q5XXA6).
T1 construct: expressed in transfected cells
T1 sequence (Q5XXA6 1-927 isoform Q5XXA6-4): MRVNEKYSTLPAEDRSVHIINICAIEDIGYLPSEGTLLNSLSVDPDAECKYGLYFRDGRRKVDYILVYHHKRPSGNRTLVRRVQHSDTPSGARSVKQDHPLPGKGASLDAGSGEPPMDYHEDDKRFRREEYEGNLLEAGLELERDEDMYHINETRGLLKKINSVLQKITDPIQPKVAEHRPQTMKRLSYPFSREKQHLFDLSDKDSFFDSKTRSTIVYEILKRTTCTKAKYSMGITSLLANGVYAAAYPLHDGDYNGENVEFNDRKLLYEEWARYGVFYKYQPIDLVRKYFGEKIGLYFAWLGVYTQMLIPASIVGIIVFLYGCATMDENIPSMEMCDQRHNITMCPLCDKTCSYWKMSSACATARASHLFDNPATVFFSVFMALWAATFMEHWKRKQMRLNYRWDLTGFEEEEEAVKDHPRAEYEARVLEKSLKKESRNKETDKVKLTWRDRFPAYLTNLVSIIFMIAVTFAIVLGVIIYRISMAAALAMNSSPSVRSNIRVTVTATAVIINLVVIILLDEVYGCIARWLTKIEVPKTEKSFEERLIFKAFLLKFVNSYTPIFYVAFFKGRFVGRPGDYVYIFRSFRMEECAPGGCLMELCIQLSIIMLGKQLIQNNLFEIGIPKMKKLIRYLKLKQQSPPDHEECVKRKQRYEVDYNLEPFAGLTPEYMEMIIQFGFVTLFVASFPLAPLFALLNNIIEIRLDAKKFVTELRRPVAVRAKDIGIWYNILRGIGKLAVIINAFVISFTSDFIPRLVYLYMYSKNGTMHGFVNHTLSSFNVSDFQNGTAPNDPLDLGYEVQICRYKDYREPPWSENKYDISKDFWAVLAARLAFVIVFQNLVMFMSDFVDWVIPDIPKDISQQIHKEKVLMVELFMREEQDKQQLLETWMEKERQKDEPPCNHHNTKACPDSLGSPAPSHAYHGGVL
The experiment in a line: hsYFP quenching assay in NCL-SG3-hsYFP-TMEM16A(acΔe3) cells. The settings on record: 330 μM ATP; for Effect of pretreatment on hsYFP quenching / Ca^2+-dependent Cl^− secretion after ATP: cells overexpressing TMEM16A(acΔe3). In kind it is cell-based. Here is the method:
NCL-SG3-hsYFP, NCL-SG 3-hsYFP-TMEM16A(ac) and NCL-SG3-hsYFP-TMEM16A(acΔe3) cells were untreated (basal activity) or stimulated with ATP (330 μM). Quenching of hsYFP fluorescence was determined. The rate of I^− influx (sec^−1) was calculated from the initial slope of measured hsYFP fluorescence (ΔYFP fluorescence/Δtime) and is a direct measure of CaCC activity. For better comparison fold changes compared to basal activity of parental cells are shown. […] All influx rate differences are higly statistically significant, except the basal influx rate of parental and TMEM16A(ac) overexpressing NCL-SG3-hsYFP cells (Student's t-test, two-tailed; *** p-value<0.0001).
TMEM16A(ac) and TMEM16A(acΔe3) are present in human eccrine sweat glands and were therefore obtained by RT-PCR amplification using TRIzol® (Invitrogen) extracted RNA from freshly isolated human eccrine sweat glands using oligonucleotides (forward 5′-[…]; reverse 5′-[…]) SEQ ID NOS: 5 and 6 , which amplify full-length TMEM16A, and subsequently cloned into the proprietary eukaryotic gene expression plasmid (pEF1α-TMEM16A(ac) and pEF1α-TMEM16A(acΔe3), FIG. 6A). […] Both genes are coupled by an internal ribosomal entry site (IRES) to enable efficient translation of both open reading frames located on the same mRNA. […]
Taken together, NCL-SG3-hsYFP cells can be used to monitor Ca^2+-dependent Cl^− fluxes, which represent the initial step in primary sweat formation in sweat gland cells. […] Microplates were transferred into an automated fluorescence plate reader (FlexStation®, Molecular Devices) and cellular hsYFP fluorescence was continuously recorded every 3.5 sec until end of the experiment (excitation at 485 nm, emission at 535 nm, cutoff 515 nm). […] NCL-SG3-hsYFP cells allow quantitative evaluation of in vivo Cl^− channel activity (FIGS. 9 and 10D). To determine the exact rate of Cl^− efflux/I^− influx the hsYFP fluorescence was plotted against time (ΔYFP fluorescence/Δtime). […]

Take `Nc1ncnc2c1ncn2[C@@H]1O[C@H](COP(=O)(O)OP(=O)(O)OP(=O)(O)O)[C@@H](O)[C@H]1O` [ATP]: the “ATP-induced activity (I^− influx rate, fold)” value (TMEM16A(acΔe3) overexpressing cells) was 2 fold.
For the compound `O=C(OC[C@H]1O[C@@H](OC(=O)c2cc(O)c(O)c(OC(=O)c3cc(O)c(O)c(O)c3)c2)[C@H](OC(=O)c2cc(O)c(O)c(OC(=O)c3cc(O)c(O)c(O)c3)c2)[C@@H](OC(=O)c2cc(O)c(O)c(OC(=O)c3cc(O)c(O)c(O)c3)c2)[C@@H]1OC(=O)c1cc(O)c(O)c(OC(=O)c2cc(O)c(O)c(O)c2)c1)c1cc(O)c(O)c(OC(=O)c2cc(O)c(O)c(O)c2)c1` [TA, tannic acid], the “Effect of pretreatment on hsYFP quenching / Ca^2+-dependent Cl^− secretion after ATP” value is reported as “significant reduction of hsYFP quenching”. In addition, the “Effect of pretreatment on hsYFP quenching / Ca^2+-dependent Cl^− secretion after ATP” value (listed as tannic acid) is reported as “inhibited”.
